How the values were obtained:
Acetylcholinesterase = Acetylcholinesterase (Homo sapiens, UniProt P22303); assay type: functional
D(3) dopamine receptor = D(3) dopamine receptor (Homo sapiens, UniProt P35462)
Prothrombin = Prothrombin (Homo sapiens, UniProt P00734); assay type: functional
Mu-type opioid receptor = Mu-type opioid receptor (Homo sapiens, UniProt P35372)
Thromboxane A2 receptor = biological target: T1, Thromboxane A2 receptor (Homo sapiens, UniProt P21731); assay type: functional, cell-based
T1 sequence (P21731 whole entry): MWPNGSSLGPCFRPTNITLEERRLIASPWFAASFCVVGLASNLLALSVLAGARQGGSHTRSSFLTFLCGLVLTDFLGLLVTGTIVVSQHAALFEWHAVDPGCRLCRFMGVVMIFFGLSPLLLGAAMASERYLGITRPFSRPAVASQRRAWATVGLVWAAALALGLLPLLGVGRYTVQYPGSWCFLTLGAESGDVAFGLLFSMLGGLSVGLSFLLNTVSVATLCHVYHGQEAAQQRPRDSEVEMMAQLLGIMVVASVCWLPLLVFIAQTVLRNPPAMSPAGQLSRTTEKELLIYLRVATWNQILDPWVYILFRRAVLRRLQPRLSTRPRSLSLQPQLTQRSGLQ

[1] = biological target: Voltage-gated inwardly rectifying potassium channel KCNH2 (Homo sapiens, UniProt Q12809); assay type: functional
D(1A) dopamine receptor = D(1A) dopamine receptor (Homo sapiens, UniProt P21728)
[2] = biological target: cGMP-inhibited 3',5'-cyclic phosphodiesterase 3A (Homo sapiens, UniProt Q14432); assay type: functional
[3] = biological target: T2, Prostaglandin G/H synthase 1 (Homo sapiens, UniProt P23219); assay type: functional
[4] = biological target: T3, Muscarinic acetylcholine receptor M2 (Homo sapiens, UniProt P08172)
T3 sequence (P08172 whole entry): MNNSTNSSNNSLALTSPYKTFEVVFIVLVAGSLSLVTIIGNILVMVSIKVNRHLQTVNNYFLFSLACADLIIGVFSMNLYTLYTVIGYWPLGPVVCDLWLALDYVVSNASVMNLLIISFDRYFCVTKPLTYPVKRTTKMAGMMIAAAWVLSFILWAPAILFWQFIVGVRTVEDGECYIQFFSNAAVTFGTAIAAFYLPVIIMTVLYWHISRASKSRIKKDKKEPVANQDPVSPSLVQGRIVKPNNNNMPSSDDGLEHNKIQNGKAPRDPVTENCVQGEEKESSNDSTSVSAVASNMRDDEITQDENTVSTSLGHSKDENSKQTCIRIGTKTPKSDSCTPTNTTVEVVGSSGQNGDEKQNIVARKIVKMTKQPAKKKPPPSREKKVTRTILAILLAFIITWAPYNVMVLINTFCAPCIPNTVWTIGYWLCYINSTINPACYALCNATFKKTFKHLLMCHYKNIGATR

Histamine H3 receptor = Histamine H3 receptor (Homo sapiens, UniProt Q9Y5N1)
[5] = biological target: 3',5'-cyclic-AMP phosphodiesterase 4A (Homo sapiens, UniProt P27815); assay type: functional
Progesterone receptor = biological target: T4, Progesterone receptor (Homo sapiens, UniProt P06401)
T4 sequence (P06401 whole entry): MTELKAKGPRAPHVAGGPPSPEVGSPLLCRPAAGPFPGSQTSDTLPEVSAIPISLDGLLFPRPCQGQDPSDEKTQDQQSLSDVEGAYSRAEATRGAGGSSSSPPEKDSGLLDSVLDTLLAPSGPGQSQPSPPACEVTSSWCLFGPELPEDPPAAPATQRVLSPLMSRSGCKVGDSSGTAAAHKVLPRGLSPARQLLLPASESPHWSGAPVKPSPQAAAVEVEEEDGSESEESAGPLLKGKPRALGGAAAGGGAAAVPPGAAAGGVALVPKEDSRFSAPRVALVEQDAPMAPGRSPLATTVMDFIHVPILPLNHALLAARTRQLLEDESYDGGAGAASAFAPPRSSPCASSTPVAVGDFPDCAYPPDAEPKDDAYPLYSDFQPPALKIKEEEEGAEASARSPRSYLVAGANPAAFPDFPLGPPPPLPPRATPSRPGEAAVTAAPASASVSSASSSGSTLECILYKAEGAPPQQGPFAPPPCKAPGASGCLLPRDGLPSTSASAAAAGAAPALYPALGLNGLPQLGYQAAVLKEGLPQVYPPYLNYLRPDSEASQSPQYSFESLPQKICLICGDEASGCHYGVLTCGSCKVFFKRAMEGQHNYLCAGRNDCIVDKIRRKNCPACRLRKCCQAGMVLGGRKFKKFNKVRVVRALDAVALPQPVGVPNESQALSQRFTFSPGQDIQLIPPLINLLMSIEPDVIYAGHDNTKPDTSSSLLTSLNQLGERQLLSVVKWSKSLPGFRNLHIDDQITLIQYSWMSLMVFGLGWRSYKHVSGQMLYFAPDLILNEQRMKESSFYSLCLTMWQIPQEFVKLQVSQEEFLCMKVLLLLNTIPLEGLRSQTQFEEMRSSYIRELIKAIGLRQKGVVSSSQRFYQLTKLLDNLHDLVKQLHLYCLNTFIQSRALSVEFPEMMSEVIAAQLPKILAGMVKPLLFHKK

[6] = biological target: T5, Amine oxidase [flavin-containing] A (Homo sapiens, UniProt P21397); assay type: functional
T5 sequence (P21397 whole entry): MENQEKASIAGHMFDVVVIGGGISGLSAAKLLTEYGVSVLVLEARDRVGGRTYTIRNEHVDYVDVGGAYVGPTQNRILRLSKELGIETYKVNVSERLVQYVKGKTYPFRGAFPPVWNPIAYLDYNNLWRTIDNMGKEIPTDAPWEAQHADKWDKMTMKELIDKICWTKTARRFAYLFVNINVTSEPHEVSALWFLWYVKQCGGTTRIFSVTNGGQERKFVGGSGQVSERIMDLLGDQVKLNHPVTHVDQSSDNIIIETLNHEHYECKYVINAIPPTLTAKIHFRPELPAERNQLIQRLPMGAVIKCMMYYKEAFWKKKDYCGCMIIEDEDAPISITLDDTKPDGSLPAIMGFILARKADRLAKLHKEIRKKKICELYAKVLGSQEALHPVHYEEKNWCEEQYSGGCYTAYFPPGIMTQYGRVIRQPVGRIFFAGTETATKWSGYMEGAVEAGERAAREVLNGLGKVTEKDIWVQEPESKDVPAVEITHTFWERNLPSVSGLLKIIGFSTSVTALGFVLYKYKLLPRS

[7] = biological target: T2, Prostaglandin G/H synthase 1; assay type: functional; remark: listed apart in the source
Further: assay procedure not described here.

cGMP-inhibited 3',5'-cyclic phosphodiesterase 3A, sequence (Q14432 whole entry): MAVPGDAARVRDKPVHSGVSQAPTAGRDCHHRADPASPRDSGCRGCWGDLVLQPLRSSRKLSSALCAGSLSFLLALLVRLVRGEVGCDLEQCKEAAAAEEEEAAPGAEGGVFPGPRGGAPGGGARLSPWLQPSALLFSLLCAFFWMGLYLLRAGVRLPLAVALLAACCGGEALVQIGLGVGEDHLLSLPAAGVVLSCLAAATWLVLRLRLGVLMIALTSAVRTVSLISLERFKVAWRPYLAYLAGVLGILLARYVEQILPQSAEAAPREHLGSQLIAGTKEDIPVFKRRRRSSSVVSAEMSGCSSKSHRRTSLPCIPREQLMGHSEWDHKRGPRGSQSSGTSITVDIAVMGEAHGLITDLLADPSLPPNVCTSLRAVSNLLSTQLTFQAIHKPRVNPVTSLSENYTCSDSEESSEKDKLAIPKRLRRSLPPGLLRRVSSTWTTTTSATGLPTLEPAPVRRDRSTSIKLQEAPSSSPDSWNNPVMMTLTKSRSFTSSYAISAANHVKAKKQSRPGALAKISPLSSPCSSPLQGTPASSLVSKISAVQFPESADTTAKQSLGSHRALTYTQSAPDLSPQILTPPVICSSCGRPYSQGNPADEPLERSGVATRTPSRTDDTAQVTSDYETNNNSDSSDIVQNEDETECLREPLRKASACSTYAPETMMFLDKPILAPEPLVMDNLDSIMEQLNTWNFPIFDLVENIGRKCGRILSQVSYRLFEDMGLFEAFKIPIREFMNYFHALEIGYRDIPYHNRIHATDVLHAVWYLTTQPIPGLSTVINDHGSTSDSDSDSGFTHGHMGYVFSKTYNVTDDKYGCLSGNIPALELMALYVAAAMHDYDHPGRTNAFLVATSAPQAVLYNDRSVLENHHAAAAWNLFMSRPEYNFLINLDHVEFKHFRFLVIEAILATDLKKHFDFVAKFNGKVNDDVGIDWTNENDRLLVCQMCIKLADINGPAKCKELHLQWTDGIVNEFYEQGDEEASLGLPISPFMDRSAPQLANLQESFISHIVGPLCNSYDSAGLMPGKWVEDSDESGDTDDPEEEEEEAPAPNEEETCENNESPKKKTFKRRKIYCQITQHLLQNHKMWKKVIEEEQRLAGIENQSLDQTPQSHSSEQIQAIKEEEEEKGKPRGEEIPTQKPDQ
Voltage-gated inwardly rectifying potassium channel KCNH2, sequence (Q12809 whole entry): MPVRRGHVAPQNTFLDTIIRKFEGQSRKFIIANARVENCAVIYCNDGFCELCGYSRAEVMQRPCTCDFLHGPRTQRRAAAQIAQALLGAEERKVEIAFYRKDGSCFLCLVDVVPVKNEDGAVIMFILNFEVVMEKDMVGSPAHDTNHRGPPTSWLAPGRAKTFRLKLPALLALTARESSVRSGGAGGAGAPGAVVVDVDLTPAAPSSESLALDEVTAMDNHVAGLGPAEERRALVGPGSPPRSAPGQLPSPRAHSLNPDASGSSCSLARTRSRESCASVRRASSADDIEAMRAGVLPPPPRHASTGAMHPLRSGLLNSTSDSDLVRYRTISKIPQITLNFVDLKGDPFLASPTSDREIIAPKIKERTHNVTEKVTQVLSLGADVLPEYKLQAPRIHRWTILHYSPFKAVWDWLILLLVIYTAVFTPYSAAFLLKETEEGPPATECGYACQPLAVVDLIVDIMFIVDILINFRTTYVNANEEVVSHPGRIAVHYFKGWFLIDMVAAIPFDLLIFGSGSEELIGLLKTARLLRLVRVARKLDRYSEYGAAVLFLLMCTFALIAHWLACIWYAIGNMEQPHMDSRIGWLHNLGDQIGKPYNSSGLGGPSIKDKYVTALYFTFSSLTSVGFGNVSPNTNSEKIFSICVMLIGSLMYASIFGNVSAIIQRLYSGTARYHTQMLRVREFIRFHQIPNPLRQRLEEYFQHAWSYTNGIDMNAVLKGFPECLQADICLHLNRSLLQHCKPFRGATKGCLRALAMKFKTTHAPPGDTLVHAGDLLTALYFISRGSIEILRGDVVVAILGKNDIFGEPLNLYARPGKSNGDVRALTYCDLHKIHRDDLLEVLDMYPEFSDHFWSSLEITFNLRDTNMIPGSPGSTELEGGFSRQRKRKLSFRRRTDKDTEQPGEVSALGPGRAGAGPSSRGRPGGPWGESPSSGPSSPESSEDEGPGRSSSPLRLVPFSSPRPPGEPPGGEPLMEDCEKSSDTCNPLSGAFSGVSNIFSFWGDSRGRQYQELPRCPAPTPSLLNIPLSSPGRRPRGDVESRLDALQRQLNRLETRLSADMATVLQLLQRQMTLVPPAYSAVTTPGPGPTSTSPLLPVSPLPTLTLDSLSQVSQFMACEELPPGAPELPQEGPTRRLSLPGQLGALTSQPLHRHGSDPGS
Mu-type opioid receptor, sequence (P35372 whole entry): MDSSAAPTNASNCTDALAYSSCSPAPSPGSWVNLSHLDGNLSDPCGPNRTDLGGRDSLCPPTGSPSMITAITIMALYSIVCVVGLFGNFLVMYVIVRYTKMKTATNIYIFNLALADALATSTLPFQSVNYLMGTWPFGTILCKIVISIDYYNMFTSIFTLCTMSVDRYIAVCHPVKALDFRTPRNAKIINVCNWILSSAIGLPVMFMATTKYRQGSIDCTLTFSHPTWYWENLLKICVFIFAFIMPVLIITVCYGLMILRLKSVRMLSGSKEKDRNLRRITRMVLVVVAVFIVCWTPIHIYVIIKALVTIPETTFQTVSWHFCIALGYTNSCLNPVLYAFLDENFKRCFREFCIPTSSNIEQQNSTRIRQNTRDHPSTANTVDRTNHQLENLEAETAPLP
3',5'-cyclic-AMP phosphodiesterase 4A, sequence (P27815 whole entry): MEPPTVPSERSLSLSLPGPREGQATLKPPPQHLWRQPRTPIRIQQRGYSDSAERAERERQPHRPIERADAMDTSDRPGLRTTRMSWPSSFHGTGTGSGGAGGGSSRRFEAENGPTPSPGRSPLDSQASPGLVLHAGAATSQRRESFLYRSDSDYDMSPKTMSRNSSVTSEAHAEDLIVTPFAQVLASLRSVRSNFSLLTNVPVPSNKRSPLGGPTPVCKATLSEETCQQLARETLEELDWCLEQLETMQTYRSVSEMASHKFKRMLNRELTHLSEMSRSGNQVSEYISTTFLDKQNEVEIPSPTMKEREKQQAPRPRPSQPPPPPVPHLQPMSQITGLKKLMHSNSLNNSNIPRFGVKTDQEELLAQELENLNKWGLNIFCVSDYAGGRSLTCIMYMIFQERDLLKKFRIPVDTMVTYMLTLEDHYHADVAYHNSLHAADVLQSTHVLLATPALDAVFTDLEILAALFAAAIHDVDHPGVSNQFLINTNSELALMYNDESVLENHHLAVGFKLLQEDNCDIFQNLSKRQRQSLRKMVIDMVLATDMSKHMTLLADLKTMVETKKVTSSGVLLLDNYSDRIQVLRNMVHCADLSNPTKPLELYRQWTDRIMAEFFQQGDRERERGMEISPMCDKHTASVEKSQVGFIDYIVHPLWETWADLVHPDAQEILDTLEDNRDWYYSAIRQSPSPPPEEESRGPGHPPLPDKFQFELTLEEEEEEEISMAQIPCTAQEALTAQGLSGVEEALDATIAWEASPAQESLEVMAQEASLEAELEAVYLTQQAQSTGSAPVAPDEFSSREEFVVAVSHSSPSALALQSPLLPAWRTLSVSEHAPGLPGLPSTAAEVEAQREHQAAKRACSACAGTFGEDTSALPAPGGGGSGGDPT
Histamine H3 receptor, sequence (Q9Y5N1 whole entry): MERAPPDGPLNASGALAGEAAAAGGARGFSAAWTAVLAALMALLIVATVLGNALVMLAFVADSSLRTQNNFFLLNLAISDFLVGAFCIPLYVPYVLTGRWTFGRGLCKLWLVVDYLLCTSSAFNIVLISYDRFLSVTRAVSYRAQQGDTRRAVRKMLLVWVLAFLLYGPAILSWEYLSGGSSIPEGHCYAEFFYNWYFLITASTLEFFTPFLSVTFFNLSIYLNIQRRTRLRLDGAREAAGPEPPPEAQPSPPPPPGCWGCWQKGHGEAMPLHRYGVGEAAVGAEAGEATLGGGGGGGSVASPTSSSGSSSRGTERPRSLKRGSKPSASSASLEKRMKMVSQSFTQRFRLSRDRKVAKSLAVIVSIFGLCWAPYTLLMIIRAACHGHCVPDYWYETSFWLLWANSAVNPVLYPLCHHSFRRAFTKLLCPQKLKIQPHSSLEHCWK
T2 sequence (P23219 whole entry): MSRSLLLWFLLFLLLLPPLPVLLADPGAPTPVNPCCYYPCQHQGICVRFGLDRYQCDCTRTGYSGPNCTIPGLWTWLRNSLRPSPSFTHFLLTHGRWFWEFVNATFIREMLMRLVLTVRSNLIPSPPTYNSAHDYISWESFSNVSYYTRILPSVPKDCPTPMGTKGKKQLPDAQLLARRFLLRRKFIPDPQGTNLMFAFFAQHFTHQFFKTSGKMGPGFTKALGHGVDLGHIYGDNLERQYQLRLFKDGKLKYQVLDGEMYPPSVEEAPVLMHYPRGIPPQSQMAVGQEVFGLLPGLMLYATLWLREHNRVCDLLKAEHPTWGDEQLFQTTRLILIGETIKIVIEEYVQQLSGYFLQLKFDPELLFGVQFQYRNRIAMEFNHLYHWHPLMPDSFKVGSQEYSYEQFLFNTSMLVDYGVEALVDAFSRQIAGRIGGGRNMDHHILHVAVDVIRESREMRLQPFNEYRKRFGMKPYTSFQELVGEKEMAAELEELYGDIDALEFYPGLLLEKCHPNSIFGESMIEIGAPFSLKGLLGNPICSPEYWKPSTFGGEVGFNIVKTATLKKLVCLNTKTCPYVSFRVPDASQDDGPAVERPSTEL
D(3) dopamine receptor, sequence (P35462 whole entry): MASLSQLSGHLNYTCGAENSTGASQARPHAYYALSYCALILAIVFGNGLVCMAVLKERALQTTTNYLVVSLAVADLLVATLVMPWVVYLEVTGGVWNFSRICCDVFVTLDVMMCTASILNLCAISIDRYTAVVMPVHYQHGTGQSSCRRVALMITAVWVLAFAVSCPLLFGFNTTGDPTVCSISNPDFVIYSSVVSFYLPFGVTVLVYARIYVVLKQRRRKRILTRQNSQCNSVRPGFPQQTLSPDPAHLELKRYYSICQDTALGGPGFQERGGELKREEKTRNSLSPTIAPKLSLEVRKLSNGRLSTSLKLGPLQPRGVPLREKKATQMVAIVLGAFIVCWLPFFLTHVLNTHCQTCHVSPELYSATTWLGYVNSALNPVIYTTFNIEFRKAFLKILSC

Compound	AC50 (Acetylcholinesterase)	AC50 (D(3) dopamine receptor)	AC50 (Prothrombin)	AC50 (Mu-type opioid receptor)	AC50 (Thromboxane A2 receptor)	AC50 [1]	AC50 (D(1A) dopamine receptor)	AC50 [2]	AC50 [3]	AC50 [4]	AC50 (Histamine H3 receptor)	AC50 [5]	AC50 (Progesterone receptor)	AC50 [6]	AC50 [7]
C=CCN1CC[C@]23CCCC[C@H]2[C@H]1Cc1ccc(O)cc13 [LEVALLORPHAN]	16.7 µM	23.4 µM	> 30 µM	0.003 µM	> 30 µM	14 µM	> 30 µM	> 30 µM	8.54 µM	8.91 µM	> 30 µM	> 30 µM	> 30 µM	> 30 µM	> 30 µM
Nc1ccc(C(=O)Oc2ccccc2)c(O)c1 [PHENYL AMINOSALICYLATE]	> 30 µM	> 30 µM	> 30 µM	> 30 µM	17.2 µM	> 30 µM	> 30 µM	> 30 µM	> 30 µM	> 30 µM	> 30 µM	14.5 µM	> 30 µM	> 30 µM	> 30 µM
C[C@]1(Cn2ccnn2)[C@H](C(=O)O)N2C(=O)C[C@H]2S1(=O)=O [TAZOBACTAM]	> 30 µM	> 30 µM	> 30 µM	> 30 µM	> 30 µM	> 30 µM	> 30 µM	> 30 µM	> 30 µM	> 30 µM	> 30 µM	> 30 µM	> 30 µM	> 30 µM	> 30 µM
CN1CCC(=C2c3ccccc3Sc3ccccc32)CC1 [PIMETHIXENE]	> 30 µM	0.0497 µM	> 30 µM	8.56 µM	14 µM	3.9 µM	0.0552 µM	> 30 µM	> 30 µM	0.0071 µM	> 30 µM	> 30 µM	> 30 µM	> 30 µM	> 30 µM
COc1c2ccoc2cc2oc(=O)ccc12 [BERGAPTEN]	> 30 µM	> 30 µM	> 30 µM	> 30 µM	> 30 µM	> 30 µM	> 30 µM	> 30 µM	> 30 µM	> 30 µM	> 30 µM	> 30 µM	12.4 µM	> 10 µM	> 30 µM
OC[C@H]1O[C@@](CO)(O[C@H]2O[C@H](CO)[C@@H](O)[C@H](O)[C@H]2O)[C@@H](O)[C@@H]1O [SUCROSE]	> 30 µM	> 30 µM	> 30 µM	> 30 µM	> 30 µM	> 30 µM	> 30 µM	> 30 µM	> 30 µM	> 30 µM	> 30 µM	> 30 µM	> 30 µM	> 30 µM	> 30 µM
C/C=C/C/C=C/CCC(=O)[C@H]1O[C@H]1C(N)=O [CERULENIN]	> 30 µM	> 30 µM	> 30 µM	> 30 µM	> 30 µM	> 30 µM	> 30 µM	> 30 µM	15.5 µM	> 30 µM	> 30 µM	> 30 µM	> 30 µM	> 30 µM	> 30 µM
CC(CN1CC(=O)NC(=O)C1)N1CC(=O)NC(=O)C1 (stereo not given) [RAZOXANE]	> 10 µM	> 30 µM	> 30 µM	> 30 µM	> 30 µM	> 30 µM	> 30 µM	> 30 µM	> 3 µM	> 30 µM	> 30 µM	> 30 µM	> 30 µM	> 30 µM	20.4 µM
CC[C@H]1OC(=O)[C@H](C)C(=O)[C@H](C)[C@@H](O[C@@H]2O[C@H](C)C[C@H](N(C)C)[C@H]2O)[C@](C)(OC)C[C@@H](C)C(=O)[C@H](C)[C@H]2N(CCCCn3cnc(-c4cccnc4)c3)C(=O)O[C@]12C [TELITHROMYCIN]	> 30 µM	> 30 µM	> 30 µM	> 30 µM	> 30 µM	> 30 µM	> 30 µM	> 30 µM	20.6 µM	> 30 µM	> 30 µM	> 30 µM	> 30 µM	> 30 µM	> 30 µM
O=C1/C(=C2\Nc3ccc(S(=O)(=O)O)cc3C2=O)Nc2ccc(S(=O)(=O)O)cc21 [INDIGOTINDISULFONATE]	> 30 µM	> 30 µM	2.83 µM	> 30 µM	> 30 µM	> 30 µM	> 30 µM	> 30 µM	> 30 µM	> 30 µM	> 30 µM	> 30 µM	> 30 µM	> 30 µM	21.5 µM
C#C[C@]1(O)CC[C@H]2[C@@H]3CCC4=CC(=O)CC[C@@H]4[C@H]3C(=C)C[C@@]21CC [ETONOGESTREL]	> 30 µM	> 30 µM	> 30 µM	10.5 µM	> 30 µM	> 30 µM	> 30 µM	> 30 µM	> 30 µM	> 30 µM	> 30 µM	> 30 µM	0.003 µM	> 30 µM	> 30 µM
CC[C@H](c1ccc(O)cc1)[C@@H](CC)c1ccc(O)cc1 [HEXESTROL]	> 30 µM	17.5 µM	> 30 µM	15 µM	> 3 µM	> 30 µM	15.5 µM	> 30 µM	16.4 µM	18.7 µM	> 30 µM	> 30 µM	1.85 µM	> 30 µM	> 30 µM
